The values below come from paper PMC4761905, “A Novel Heterocyclic Compound CE-104 Enhances Spatial Working Memory in the Radial Arm Maze in Rats and Modulates the Dopaminergic System” (Frontiers in Behavioral Neuroscience, 2016).

pIC50: −log10 of the molar value.

The target in test [1] is T1, norepinephrine transporter (NET) (Homo sapiens, UniProt P23975).
T1 construct: gene SLC6A2
Put plainly: [3H]MPP+ uptake inhibition in HEK293 cells stably expressing human NET. The class given is cell-based.

Test [2] concerns the target T2, dopamine transporter (DAT) (Homo sapiens, UniProt Q01959).
T2 construct: gene SLC6A3
Put plainly: [3H]dopamine uptake inhibition in HEK293 cells stably expressing human DAT. The test is classed as cell-based.

T1 sequence (P23975 whole entry): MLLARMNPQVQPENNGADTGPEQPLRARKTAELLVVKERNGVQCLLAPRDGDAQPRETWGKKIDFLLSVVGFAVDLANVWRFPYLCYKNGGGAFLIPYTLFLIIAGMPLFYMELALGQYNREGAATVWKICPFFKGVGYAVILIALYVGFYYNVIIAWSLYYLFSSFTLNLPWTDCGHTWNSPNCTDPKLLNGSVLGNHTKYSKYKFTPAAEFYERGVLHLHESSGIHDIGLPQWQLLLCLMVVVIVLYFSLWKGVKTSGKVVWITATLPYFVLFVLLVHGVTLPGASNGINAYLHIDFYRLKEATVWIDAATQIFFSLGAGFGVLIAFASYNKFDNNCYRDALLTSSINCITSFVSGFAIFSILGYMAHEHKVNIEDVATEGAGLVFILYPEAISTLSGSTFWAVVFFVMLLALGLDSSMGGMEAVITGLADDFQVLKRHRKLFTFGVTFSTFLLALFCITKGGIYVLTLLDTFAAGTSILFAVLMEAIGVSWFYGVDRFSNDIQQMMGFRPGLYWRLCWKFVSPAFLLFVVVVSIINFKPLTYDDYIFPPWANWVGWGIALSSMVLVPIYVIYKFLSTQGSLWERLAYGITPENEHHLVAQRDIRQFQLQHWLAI
T2 sequence (Q01959 whole entry): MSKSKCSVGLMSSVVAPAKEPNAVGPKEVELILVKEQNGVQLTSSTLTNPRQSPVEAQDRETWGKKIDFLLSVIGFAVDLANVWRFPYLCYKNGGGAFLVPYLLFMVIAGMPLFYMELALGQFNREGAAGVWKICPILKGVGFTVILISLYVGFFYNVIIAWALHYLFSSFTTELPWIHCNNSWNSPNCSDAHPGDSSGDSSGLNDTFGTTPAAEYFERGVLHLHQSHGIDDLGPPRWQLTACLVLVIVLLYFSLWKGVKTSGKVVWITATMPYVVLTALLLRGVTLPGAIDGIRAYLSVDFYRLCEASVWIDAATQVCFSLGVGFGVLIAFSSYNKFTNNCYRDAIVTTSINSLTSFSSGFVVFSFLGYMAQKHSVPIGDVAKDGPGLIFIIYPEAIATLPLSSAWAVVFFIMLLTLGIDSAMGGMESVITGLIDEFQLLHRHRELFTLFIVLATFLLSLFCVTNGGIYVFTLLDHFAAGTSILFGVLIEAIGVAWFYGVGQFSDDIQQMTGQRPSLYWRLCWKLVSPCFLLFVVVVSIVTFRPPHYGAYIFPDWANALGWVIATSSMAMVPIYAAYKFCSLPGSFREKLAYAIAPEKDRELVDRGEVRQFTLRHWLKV

Turning to `Cc1csc(C[S+]([O-])C(c2ccccc2)c2ccccc2)n1` (racemic) [CE-104, 2-(benzhydrylsulfinylmethyl)-4-methylthiazole], the negative logarithm of the IC50 (pIC50) (commonly the IC50 on a negative log10 scale, so that one unit is a factor of ten) was 3.79 in test [1] and 4.55 in test [2].
